{"source": "patent US9125881B2", "about": "“Monoglyceride of acetoacetate and derivatives for the treatment of neurological disorders” (Accera, Inc., priority 2008, dated 2015)", "key": {"[1]": {"assay": "Mouse pharmacokinetic (PK) study: blood ketone bodies after po and ip dosing", "type": "in vivo", "conditions": "ICR male mice, single po dose (2.5, 5, 10 ml/kg) or single ip dose (1 g/kg); plasma; as early as 15 minutes", "procedure": "The inventor examined the blood levels of ketone bodies after oral (po) and intraperitoneal (ip) dosing of monoacetoacetin at different time points in the mouse.\nICR male mice 6 to 7 weeks old were used. Each mouse weighed between 20-30 grams. Animals were housed 3 per cage and were acclimated for at least 3 days prior to dosing. Mice were given either a single po dose (ranging from 2.5, 5 and 10 ml/kg) of compound, or a single ip dose (1 g/kg). Animals were anesthetized for blood collection at the times 15, 30, 60 and 180 minutes. Whole blood (˜0.4 mls) was collected via cardiac puncture and collected into sodium heparin anticoagulant (Na Heparin, 1:9 ratio). Blood was centrifuged for 8 minutes at 13,000 rpm to isolate plasma. The plasma was transferred into pre-labeled, color-coded eppendorf tubes and frozen at −70° C. […] Plasma levels of beta-hydroxybutyrate (BHB) were determined using a beta-hydroxybutyrate detection kit following manufacturer's directions (StanBio Inc.)."}, "MPTP lesioned mice": {"tested_on": "MPTP lesioned mice", "assay": "Neuroprotective effects in MPTP lesioned mice (mouse model of Parkinson's disease)", "type": "in vivo", "conditions": "for TH+ neuron density in substantia nigra (mean): 8 day ip MPTP, histology on treatment day 11", "procedure": "To test the possible therapeutic potential of AC-0523 a small pilot experiment was performed examining the potential neuroprotective effects of AC-0523 in a mouse model of Parkinson's disease (PD). 1-methyl-4-phenyl-1,2,3,6-tetrahydropyridine (MPTP), blocks complex I (NADH-ubiquinone oxidoreductase) of the mitochondrial electron transport chain, and causes typical symptoms of (PD) and the loss of dopaminergic neurons.\nSystemic injection of MPTP, upon conversion to MPP+, produces a loss of nigrostriatal dopamine (DA) nerve terminals and eventual death of […] dopaminergic neurons. This neuropathology mimics conditions in the dopamine denervated striatum of human PD patients, and produces […] and postural instability. Assays for tyrosine hydroxylase (TH), the enzyme responsible for catalyzing the production of dopamine, and quantification of TH-containing cells in the SNc are performed to measure the extent of […] dopaminergic neurodegeneration.\nA parallel group design was used. After acclimation in the facility, subjects were tested on the Rotarod and activity tasks. On the second day of test treatment, all subjects began an 8 day ip administration of MPTP or saline. Fifteen minutes before MPTP or saline treatment and 2.75 hours after, subjects received either the test compound or saline. On the first and ninth treatment day blood draws were taken for subsequent monitoring of β-hydroxybutyrate. On treatment day 11 all subjects were euthanized and histology was preformed on a small number of test animals."}, "[2]": {"conditions": "MPTP-treated mice, listed as AC-0523"}}, "note": "Entries after “also recorded” stand apart in the source; their conditions may differ."}
{"smiles": "CC(=O)CC(=O)OCC(O)CO", "note": "(stereo not drawn) [Monoacetoacetin, 2,3-dihydroxypropyl 3-oxobutanoate]", "values": [{"measurement": "circulating BHB levels", "setting": "[1]", "result": "significant increases"}, {"measurement": "TH-positive cell counts in the SNc versus MPTP-treated mice who received only saline or AC-1202", "setting": "MPTP lesioned mice", "result": "higher"}, {"measurement": "density of TH in the caudate-putamen", "setting": "MPTP lesioned mice; MPTP-treated mice", "result": "highest"}, {"measurement": "TH+ neuron density in substantia nigra (mean)", "setting": "MPTP lesioned mice; MPTP-treated mice, listed as AC0523", "result": 111.000}, {"measurement": "TH+ neuron density in substantia nigra (mean)", "setting": "MPTP lesioned mice; [2]", "result": "111±20"}, {"measurement": "protection of tyrosine hydroxylase (TH) expressing cells from MPTP toxicity / neuroprotection", "setting": "MPTP lesioned mice; [2]", "result": "protected tyrosine hydroxylase (TH) expressing cells from MPTP toxicity; also recorded: neuroprotective"}]}
